Patent publication US20210115401A1, “Methods and Materials for the Generation of Regulatory T Cells” (LIFE TECHNLOGIES AS, priority 2006, published 2021)

Tested on: CD4+ T cells
Assay: Surface marker (CD4, CD25, CXCR3) and intracellular FOXP3 analysis of expanded CD4+ T cells
Assay type: cell-based
Procedure: 1) Isolate CD4+ T cells from peripheral blood or leukopheresis products by the use of Dynal® CD4 Positive isolation kit, Dynal® CD4 Negative Isolation kit, Dynabeads® MyPure™ CD4 T cell kit, or CD4 Microbeads MACS®.
2) Stimulate 1.5×10^6 CD4+ T cells with anti-CD3/CD28 Dynabeads (3:1 bead: T cell ratio) in X-vivo medium with 1000 U/ml IL-4 (optional), 20 U/ml IL-2 and 1 μM final concentration of Rapamycin. Total medium volume should be 1.5 ml per 1.5×10^6 CD4+ T cells in a 24 well plate. The protocol can be scaled up.
3) On day 2, add a 10× concentrate that contains 10,000 U/ml IL-4 (optional) and […]. Add this in a volume that is 10% of the initial culture volume.
4) On day 4, add the cytokine concentrate similar to day 2.
5) On day 6, add the 10× cytokine concentrate again and take an aliquot to count the cells. This is the first time that the culture should be disturbed. Based on the count adjust the cell concentration to 1×10^6 CD4 cell/ml. Split wells and add culture medium containing Rapamycin, 1000 U/ml IL-4 (optional), 20 U/ml IL-2 to maintain cell concentration at 0.5×10^6 cells/ml.
6) From day 7 to day 12 count the cells daily. Split wells and add culture medium containing Rapamycin, 1000 U/ml IL-4 (optional), 20 U/ml IL-2 to maintain the cell concentration at 0.5×10^6 cells/ml. On day 12 the beads are removed using a magnet.
7) On day 14-15 the cells can be analyzed for surface marker expression and functional properties.
CD4+ T cells were isolated from peripheral blood by negative and/or positive isolation as described in Example 1. After expansion with IL-2, +/−IL-4, CD3/CD28 Dynabeads®, with or without Rapamycin the expanded cells were analyzed for various surface markers (CD4, CD25, CD62L, CRTh2, CCR4, CXCR3, CCR7) and for intracellular FOXP3 expression and cytokine secretion. Suppressive capacity was analyzed in standard functional assays as described below.

CO[C@H]1C[C@@H]2CC[C@@H](C)[C@@](O)(O2)C(=O)C(=O)N2CCCC[C@H]2C(=O)O[C@H]([C@H](C)C[C@@H]2CC[C@@H](O)[C@H](OC)C2)CC(=O)[C@H](C)/C=C(\C)[C@@H](O)[C@@H](OC)C(=O)[C@H](C)C[C@H](C)/C=C/C=C/C=C/1C [Rapamycin]
expanded cells expressing high levels of CD25 (CD4+ T cells expanded with CD3/CD28 Dynabeads, IL-2, +/−IL-4 and Rapamycin): Approximately 70%
CD4+CD25+ T cells among expanded cells (flow cytometry, FIG. 2) (CD4+ T cells expanded with rapamycin, 20% in the absence of rapamycin): 80%
cells expressing FOXP3 after expansion (after expansion with or without Rapamycin, freshly isolated CD4+ T cells 10%): 10%
